For one assay, the system named is AMPK. The assay is described as follows: Evaluation on effect of activating AMPK (phosphorylation of ACC Ser79, Cell ELISA in MDA-MB-453 cells). In kind it is cell-based. The following applies: Homo sapiens, 2 hours, concentration as freebase. Here is the method: 36 μl each of MDA-MB-453 cells was seeded in Leibovitz's L-15 medium including 10% fetal bovine serum (Life Technologies Corporation) in a 384 well plate so that the cells became 15,000 cells per well, and the cells were cultured overnight at 37° C. in the absence of CO2. […] After that, the cells were cultured at 37° C. for 2 hours in the absence of CO2. 20 μl of a 40% glyoxal solution (Nacalai Tesque, INC.) was added to each well, and then the cells were left to stand at room temperature for 30 minutes to be fixed. Thereafter, the supernatant was removed by centrifuging the plate (at 800 rpm for 8 seconds by using the Ecospin of C.A.N. Hereinafter the centrifugation was performed under the same conditions unless otherwise specified), and 20 μl of 0.1% Triton X-100-containing Phosphate-Buffered Saline (PBS) was added to each well, and then left to stand at room temperature for 10 minutes. The 0.1% Triton X-100-containing PBS was removed by centrifugation, and 20 μl of a blocking solution (Odyssey Blocking Buffer manufactured by LI-COR Biosciences, Inc.) was added to each well, and then left to stand at room temperature for 1 hour. […] On the following day, the reaction solution was removed by centrifuging the plate, and 25 μl of 0.05% Tween-20-containing Tris-Buffered Saline (TBS) (manufactured by Thermo Scientific; used in 1× by diluting 20×TBS Tween-20 with ion-exchange water) was added to each well, and then each well was washed by centrifugal removal. The washing was performed for a total of 3 times. […] The reaction solution was removed by centrifuging the plate, and then each well was washed for 3 times with 0.05% Tween-20-containing TBS in the same manner as after the primary antibody reaction. After the washing solution was removed, the plate was air-dried at room temperature for 3 hours or longer and signals were measured by Aerius (manufactured by LI-COR Biosciences, Inc.).

Assay [1] concerns A427 cells. The assay is described as follows: Anti-tumor test (2) on mice bearing A427 tumors. Conditions: final measuring day. The format is in vivo, BALB/c nude mice. On the procedure: (§1) A427 cells and NCI-H1395 cells which are LKB1 mutation-positive non-small cell lung cancer cell lines, and HARA cells and NCI-H1993 cells which are LKB1 wild-type non-small cell lung cancer cell lines, suspended in a mixed solution of PBS and Matrigel (registered trademark) in 1:1, were injected and implanted, 3×10^6 cells each (for A427 cells, 5×10^6), to 4- to 5-week-old male BALB/c nude mice (Charles River Laboratories Japan, Inc.) under the skin on the back. Dividing into groups was performed when the tumor volume reached 100 to 300 mm^3, and administering of the test compounds was started. The test was performed on each of the 5 mice in the solvent group and the compound administered group. By oral administration, 6% cyclodextrin aqueous solution for the solvent group, and 6% cyclodextrin aqueous solution in which the test compound was mixed by the dosage shown in Table 4 for the compound administered group were administered. The administration was performed once a day for 14 days (HARA), 21 days (A427, NCI-H1993), or 35 days (NCI-H1395), and the body weight and the tumor diameter were measured twice a week. For calculation of the tumor volume, the formula below was used.
(§2) [Tumor volume (mm^3)]−[major axis of tumor (mm)]×[minor axis of tumor (mm)]^2×0.5
(§3) The inhibition rate of tumor growth and the rate of tumor regression were calculated from the average value of the tumor volume according to the formula below.
(§4) Inhibition rate of tumor growth (%)=(1−average of tumor volume growth in each group/average of tumor volume growth in control group)×100
(§5) Rate of tumor regression (%)=(1−average tumor volume in each group on measuring day/average tumor volume in each group when dividing groups)×100

Assay [2] concerns NCI-H1395 cells. The assay is described as follows: Anti-tumor test (2) on mice bearing NCI-H1395 tumors. In kind it is in vivo, BALB/c nude mice. Conditions: final measuring day. Here is the method:
as §1, §2, §3, §4, §5

For assay [3], the system named is NCI-H1993 cells. Briefly: Anti-tumor test (2) on mice bearing NCI-H1993 tumors. The following applies: final measuring day. In kind it is in vivo, BALB/c nude mice. On the procedure:
as §1, §2, §3, §4, §5

For assay [4], the system named is HARA cells. Briefly: Anti-tumor test (2) on mice bearing HARA tumors. The format is in vivo, BALB/c nude mice. The following applies: Test Example 4, HARA, final measuring day. Here is the method:
as §1, §2, §3, §4, §5

Assay [5] deals with A427 cells. Briefly: Anti-tumor test (1) on mice bearing A427 tumors. The format is in vivo, BALB/c nude mice. Conditions: Test Example 3, A427 (LKB1 mutation-positive), 8 mg/kg oral once a day for 21 days, final measuring day. Here is the method:
(§6) A427 cells and NCI-H1395 cells which are LKB1 mutation-positive non-small cell lung cancer cell lines, and HARA cells and NCI-H1993 cells which are LKB1 wild-type non-small cell lung cancer cell lines, suspended in a mixed solution of PBS and Matrigel (registered trademark) in 1:1, were injected and implanted, 3×10^6 cells each, to 4- to 5-week-old male BALB/c nude mice (Charles River Laboratories Japan, Inc.) under the skin on the back. After that, administering of the test compounds was started after confirming that the average tumor volume exceeded 100 mm^3. The test was performed on each of the 4 to 5 mice in a solvent group and a compound administered group. By oral administration, 6% cyclodextrin aqueous solution for the solvent group, and 6% cyclodextrin aqueous solution in which the test compound was mixed by 8 mg/kg for the compound administered group were administered. The administration was performed once a day for 14 days (NCI-H1993, HARA), 21 days (A427), or 35 days (NCI-H1395), and the body weight and the tumor diameter were measured twice a week. For calculation of the tumor volume, the formula below was used.
(§7) [Tumor volume (mm^3)]=[major axis of tumor (mm)]×[minor axis of tumor (mm)]^2×0.5
(§8) The inhibition rate of tumor growth and the rate of tumor regression were calculated from the average value of the tumor volume according to the formula below. […]

Assay [6] concerns HARA cells. Briefly: Anti-tumor test (1) on mice bearing HARA tumors. The following applies: Test Example 3, HARA (LKB1 wild-type), 8 mg/kg oral once a day for 14 days, final measuring day. The format is in vivo, BALB/c nude mice. On the procedure: as §6, §7, §8
Assay [7] concerns NCI-H1993 cells. The assay is described as follows: Anti-tumor test (1) on mice bearing NCI-H1993 tumors. The format is in vivo, BALB/c nude mice. The following applies: Test Example 3, NCI-H1993 (LKB1 wild-type), 8 mg/kg oral once a day for 14 days, final measuring day. On the procedure:
as §6, §7, §8

For assay [8], the system named is NCI-H1395 cells. The assay is described as follows: Anti-tumor test (1) on mice bearing NCI-H1395 tumors. The format is in vivo, BALB/c nude mice. The following applies: Test Example 3, NCI-H1395 (LKB1 mutation-positive), 8 mg/kg oral once a day for 35 days, final measuring day. Here is the method:
as §6, §7, §8

[9] abbreviates: Test Example 4, A427, 1 mg/kg oral once a day for 21 days.
The mark [10] stands for this setting: Test Example 4, NCI-H1395, 1 mg/kg oral once a day for 35 days.
Where [11] appears, read: Test Example 4, NCI-H1993, 1 mg/kg oral once a day for 21 days.
[12] abbreviates: 1 mg/kg oral once a day for 14 days.
Where [13] appears, read: Test Example 4, A427, 8 mg/kg oral once a day for 21 days.
The mark [14] stands for this setting: Test Example 4, NCI-H1395, 8 mg/kg oral once a day for 35 days.
The mark [15] stands for this setting: Test Example 4, NCI-H1993, 8 mg/kg oral once a day for 21 days.
Setting [16] is: 8 mg/kg oral once a day for 14 days.

SMILES strings stand for the structures.

The EC50 is the concentration needed to bring the measured effect to its halfway point. In the case of `COc1cnc(CN2CCC(c3ccc4c(c3)cc(C(=O)N3CCN(Cc5ccc(C#N)cc5)CC3)n4C)CC2)cn1` [Compound D1, 4-({4-[(5-{1-[(5-methoxypyrazin-2-yl)methyl]piperidin-4-yl}-1-methyl-1H-indol-2-yl)carbonyl]piperazin-1-yl}methyl)benzonitrile], the concentration giving a half-maximal response (EC50) with AMPK came to 3.3 nM. In addition, in the assay with A427 cells [1] (setting [9]), the “Inhibition rate A427” value came out at 96% inhibition. In the assay with NCI-H1395 cells [2] (setting [10]), the “Inhibition rate NCI-H1395” value was determined as 70%. The “Inhibition rate NCI-H1993” value in the assay on NCI-H1993 cells [3] (setting [11]) is reported as 42%. In addition, in the assay on HARA cells [4] (setting [12]), the “Inhibition rate HARA” value turned out to be 31%.
In turn, `COc1cnc(CN2CCC(c3ccc4[nH]c(C(=O)N5CCN(Cc6ccc(C(F)(F)F)cc6)CC5)nc4c3)CC2)cn1` [Compound B1, (5-{1-[(5-methoxypyrazin-2-yl)methyl]piperidin-4-yl}-1H-benzimidazol-2-yl) {4-[4-(trifluoromethyl)benzyl]piperazin-1-yl}methanone] registered a concentration giving a half-maximal response (EC50) in the assay on AMPK of 8.3 nM. In addition, the “Inhibition rate A427” value in the assay on A427 cells [1] (setting [13]) is on record as 99% inhibition. The “Inhibition rate NCI-H1395” value with NCI-H1395 cells [2] (setting [14]) was 74%. The “Inhibition rate NCI-H1993” value in the assay with NCI-H1993 cells [3] (setting [15]) is listed as 62%. Also, in the assay on HARA cells [4] (setting [16]), the “Inhibition rate HARA” value was 14%.
In the assay with AMPK, `CCOc1cnc(CN2CCC(c3ccc4cc(C(=O)N5CCN(Cc6ccc(C#N)cc6)CC5)n(C)c4c3)CC2)cn1` [Compound C1, 4-({4-[(6-{1-[(5-ethoxypyrazin-2-yl)methyl]piperidin-4-yl}-1-methyl-1H-indol-2-yl)carbonyl]piperazin-1-yl}methyl)benzonitrile] showed a 50% effective concentration (EC50) of 1.8 nM. Further, in the assay with A427 cells [1] (setting [9]), the “Regression rate A427” value stood at 69% regression. Further, the “Inhibition rate NCI-H1395” value with NCI-H1395 cells [2] (setting [10]) stood at 75%. For the same compound, the “Inhibition rate NCI-H1993” value in the assay on NCI-H1993 cells [3] (setting [11]) worked out at 50%. Further, in the assay on HARA cells [4] (setting [12]), the “Inhibition rate HARA” value stood at 29%.
`COc1ccc(CN2CCC(c3ccc4[nH]c(C(=O)N5CCN(Cc6ccc(C(F)(F)F)cc6)CC5)nc4c3)CC2)cn1` [Compound A1, (5-{1-[(6-methoxypyridin-3-yl)methyl]piperidin-4-yl}-1H-benzimidazol-2-yl){4-[4-(trifluoromethyl)benzyl]piperazin-1-yl}methanone]: the “Inhibition rate A427” value in the assay on A427 cells [1] (setting [13]) is reported as 84% inhibition. For the same compound, the “Rate of tumor regression” value in the assay with A427 cells [5] worked out at 41% regression; in the assay with NCI-H1395 cells [8], 16% regression. Moreover, the “Inhibition rate of tumor growth” value in the assay with HARA cells [6] worked out at 32% inhibition; in the assay with NCI-H1993 cells [7], 62% inhibition. In the assay with NCI-H1395 cells [2] (setting [14]), the “Inhibition rate NCI-H1395” value is 61%. In addition, in the assay on NCI-H1993 cells [3] (setting [15]), the “Inhibition rate NCI-H1993” value is on record as 47%. Besides, in the assay on HARA cells [4] (setting [16]), the “Inhibition rate HARA” value is given as 1.2%.

Values taken from US20170360779A1, “PHARMACEUTICAL COMPOSITION COMPRISING BICYCLIC NITROGEN-CONTAINING AROMATIC HETEROCYCLIC AMIDE COMPOUND AS ACTIVE INGREDIENT” (Astellas Pharma Inc., priority 2014, published 2017).
